Data published in publication PMC10291553, “Exploring Structure–Activity Relationships in Photodynamic Therapy Anticancer Agents Based on Ir(III)-COUPY Conjugates” (Journal of Medicinal Chemistry, 2023).
Read-outs that look alike come from different tables or passages of the source.

Legend:
SK-MEL-28 = experiment: Photo- and cytotoxic activity determination (MTT), SK-MEL-28 cells; type: cell-based, human; details: normoxia; for SK-MEL-28 PI (phototherapeutic index), IC50 dark/IC50 irradiated: dark tested up to 100 μM
Text: Having shown that the Ir(III)-COUPY conjugates can sensitize both type I and II ROS through spectroscopic techniques and readily internalize into living cells, their photocytotoxicity was screened in various cancer cell lines. This screening included two representative melanoma cell lines (human A375 and […] human SK-MEL-28) and cancer cells with resistance to the clinical drug cisplatin. For the latter, both sensitive and cisplatin-resistant ovarian cancer cells (A2780 and A2780cis) as well as HeLa cells, which also show a degree of chemoresistance to the platinum anticancer drug in vitro,[54] were used. For the determination of dark and light cytotoxicity, dose–response curves were assayed from both conditions to provide the correspondent IC50 values, which correspond to the concentration needed for inhibition of cell growth by 50%. Phototherapeutic index (PI) was calculated as the ratio of dark to light IC50 value for each compound.
A375, HeLa, and SK-MEL-28 cells were cultured in Dulbecco’s modified Eagle medium (DMEM) supplemented with 10% FBS, L-glutamine, and 1% penicillin–streptomycin. A2780 and A2780cis cells were grown in RPMI-1640 cell medium supplemented with 10% fetal bovine serum (FBS) and 2 mM L-glutamine. Acquired resistance to cisplatin in the A2780cis cell line was maintained by adding cisplatin 1 μM to culture medium every second passage. Cells were cultured in a humidified incubator at 310 K with 5% CO2 atmosphere and subcultured two or three times a week with appropriate densities and were confirmed to be mycoplasma-free using a standard Hoechst DNA staining method.
A2780, A2780cis, HeLa, A375, and SK-MEL-28 cells were maintained at logarithmic growth-phase and cultured in 96-well plates at a density of 5000 cells/well in complete medium for 24 h at 310 K, 5% CO2 in a humidified incubator. For hypoxia experiments, a hypoxia condition was set up by Tissue Culture Service at University of Murcia using nitrogen (N2) to displace O2 down to a minimum of 2% in a Forma Steri-Cycle i160 incubator (Thermo Fisher Scientific). Serial dilutions of the compounds were added at the final concentrations in the range of 0–100 μM in a final volume of 100 μL per well. A light-based treatment schedule was performed as follows: 1 h incubation with the compounds in the dark, followed by 1 h incubation under irradiation conditions by placing the Photoreactor EXPO-LED from Luzchem (Canada) fitted with green lamps (final light intensity applied of 1.5 mW/cm^2 at λmax = 520 nm) inside the CO2 incubator. All the cell culture plates subjected to light irradiation included untreated controls to verify that cell viability was not affected by light. Then, treatment-containing media was removed, and fresh media was added for a 48 h cell recovery period; the temperature throughout the experiment remained at 310 K. Dark control samples were placed in the same dark conditions and then kept incubated for 1 h in the dark in the humidified CO2 incubator. Medium was then aspirated by suction, cells were loaded with 50 μL of MTT solution (1 mg/mL) for additional 4 h and then removed, and 50 μL of DMSO was added to solubilize the purple formazan crystals formed in active cells. The absorbance was measured at 570 nm using a microplate reader (FLUOstar Omega), and the IC50 values were calculated based on the inhibitory rate curves using the following equation [drawing 4] 4 where I represents the percentage inhibition of viability observed, Imax is the maximal inhibitory effect, IC50 is the concentration that inhibits 50% of maximal growth, C is the concentration of the treatment, and n is the slope of the semi-logarithmic dose–response sigmoidal curves. The non-linear fitting was performed using SigmaPlot 14.0 software. All experiments were performed in three independent studies with n = 3 replicates per concentration level. For a detailed phototoxicity procedure, ref ([43]) includes technical explanations.

A2780cis cells [1] = experiment: ROS photogeneration in cells (DCFH-DA probe); type: cell-based; details: 10 μM; for ROS levels after 520 nm light, normoxia: normoxia 21% O2, 520 nm, 1 h; for ROS levels in the absence of light, normoxia: dark
Method: ROS levels were determined using the 2′-7′dichlorofluorescein diacetate (DCFH-DA) probe. A2780cis cells were seeded onto 96-well black plates at 2 × 10^4cells/well for 24 h in a humidified CO2 incubator either in normoxia (21% O2) or hypoxia (2% O2). Tested compounds were then administered in cell media for the allowed time. Treatments were then removed, and cells were stained with 10 μM of DCFH-DA for 0.5 h. After staining, cells were washed with PBS twice and irradiated for 1 h with LED source light from Luzchem photoreactor (Canada) fitted with green lamps (final light intensity applied of 1.5 mW/cm^2 at λmax = 520 nm). Fluorescence readings were performed in FLUOstar Omega (λexc = 488 nm and λem = 530 ± 30 nm). Non-irradiated plates were used for dark conditions, whereas treated, unstained cells were used to subtract basal fluorescence of compounds and correct fluorescence readings. Unstained cells served as blank. Three independent experiments were performed with n = 3 replicates.

A2780cis cells [2] = experiment: Cell death induction (Annexin V/PI staining, FSC/SSC flow cytometry); type: cell-based; details: 10 μM; for secondary cell population with low FSC/SSC ratios (non-viable morphology): 1 h, 520 nm 1 h; for mode of cell death (Annexin V/Propidium Iodide): 1 h + 1 h 520 nm, 24 h recovery
Method: Cell death induction was evaluated using the Annexin V-FITC/Propidium iodide (AV/PI) dual staining method. Briefly, A2780cis cells were seeded in 12-well plates at a density of 2 × 10^5 cells/well and incubated overnight at 310 K. Tested compounds (10 μM) were added, following the described treatment schedule (1 h incubation + 1 h irradiation with 520 nm light). Irradiated, non-treated cells served as the control group. After 24 h of the drug-free recovery period, cells were harvested by trypsinization, washed with PBS and centrifuged, and the pellets were resuspended in 200 μL of a binding buffer as instructed by the manufacturer (Cayman). The resuspended cell solution was left at room temperature in the dark for 15 min before analysis by flow cytometry (FACSCalibur BecktonDickinson; 10^4 events acquired per sample). Cells were visualized using λexc = 488 channels and registered at 525 nm and 620 nm for Annexin V and propidium iodide in FL1 and FL2 channels, respectively. Cell populations were classified as follows: AV^-/PI^- (viable cells); AV^-/PI^+ (necrotic cells); AV^+/PI^- and AV^+/PI^+ (apoptotic cells). Alternatively, A2780cis cells were subjected to flow cytometry after phototreatments and morphological changes were analyzed using FSC and SSC contour plots. Data were analyzed using FlowJo software. Three independent experiments were performed.

[3] = 1 h incubation + 1 h green light 520 nm, 1.5 mW cm^–2, 48 h drug-free medium, read-out: SK-MEL-28 light IC50
[4] = kept in the dark, 2 h treatment, 48 h drug-free medium, read-out: SK-MEL-28 dark IC50
[5] = Homo sapiens, SK-MEL-28, 1 h incubation + 1 h green light 520 nm, 1.5 mW cm^–2, 48 h drug-free medium, read-out: SK-MEL-28 light IC50
[6] = Homo sapiens, SK-MEL-28, kept in the dark, 2 h treatment, 48 h drug-free medium, read-out: SK-MEL-28 dark IC50

SMILES	SK-MEL-28 PI (phototherapeutic index), IC50 dark/IC50 irradiated (SK-MEL-28; 520 nm)	IC50 (SK-MEL-28; [3]) [µM]	IC50 (SK-MEL-28; [4]) [µM]	ROS levels after green-light irradiation, hypoxia (A2780cis cells [1]; hypoxia 2% O2, 520 nm)	secondary cell population with low FSC/SSC ratios (non-viable morphology) (A2780cis cells [2])	IC50 (SK-MEL-28; [5]) [µM]	IC50 (SK-MEL-28; [6]) [µM]	IC50 (SK-MEL-28; Homo sapiens, SK-MEL-28, 520 nm, read-out: SK-MEL-28 Light 520 nm IC50 (microM) Normoxia) [µM]	IC50 (SK-MEL-28; Homo sapiens, SK-MEL-28, dark, read-out: SK-MEL-28 Dark IC50 (microM) Normoxia) [µM]	IC50 (SK-MEL-28; 520 nm, read-out: SK-MEL-28 Light 520 nm IC50 (microM) Normoxia) [µM]	IC50 (SK-MEL-28; dark, read-out: SK-MEL-28 Dark IC50 (microM) Normoxia) [µM]	ROS levels after 520 nm light, normoxia (A2780cis cells [1])	mode of cell death (Annexin V/Propidium Iodide) (A2780cis cells [2])	ROS levels in the absence of light, normoxia (A2780cis cells [1])
CCCCn1c2[n+](c3cc(C(=O)NCCCNC(=O)C[n+]4ccc(/C(C#N)=C5/C=C(C)c6ccccc6O5)cc4)ccc31)[Ir-3]13([c]4ccccc4-c4[nH]c5ccccc5[n+]41)([c]1ccccc1-c1[nH]c4ccccc4[n+]13)[n+]1c-2ccc2ccccc21 [3b]	> 48	2.1 ± 0.2	> 100	a slight increase in ROS levels	did not produce such changes									
CCN(CC)c1ccc2c(c1)O/C(=C(/C#N)c1cc[n+](C)cc1)C=C2C [1a]	> 86					1.2 ± 0.1	> 100							
CC1=C/C(=C(\C#N)c2cc[n+](C)cc2)Oc2c1cc1c3c2CCCN3CCC1 [1c]	60					0.2 ± 0.01	12 ± 1							
CC1=C/C(=C(\C#N)c2cc[n+](C)cc2)Oc2ccccc21 [1b]						> 100	> 100	> 100	> 100					
CCCCn1c2[n+](c3cc(C(=O)NCCCNC(=O)C[n+]4ccc(/C(C#N)=C5/C=C(C)c6cc7c8c(c6O5)CCCN8CCC7)cc4)ccc31)[Ir-3]13([c]4ccccc4-c4[nH]c5ccccc5[n+]41)([c]1ccccc1-c1[nH]c4ccccc4[n+]13)[n+]1c-2ccc2ccccc21 [3c]		> 100	> 100		vastly induced these secondary cell populations					> 100	> 100	strong fluorescence signal	photoinduced necrotic cell death	
CCCCn1c2[n+](c3cc(C(=O)NCCCCCC(=O)NCCCNC(=O)C[n+]4ccc(/C(C#N)=C5/C=C(C)c6ccc(N(CC)CC)cc6O5)cc4)ccc31)[Ir-3]13([c]4ccccc4-c4[nH]c5ccccc5[n+]41)([c]1ccccc1-c1[nH]c4ccccc4[n+]13)[n+]1c-2ccc2ccccc21 [3d]	> 40	2.5 ± 0.2	> 100		vastly induced these secondary cell populations							strong fluorescence signal	photoinduced necrotic cell death	slightly increased ROS levels
CCCCn1c2[n+](c3cc(C(=O)NCCCNC(=O)C[n+]4ccc(/C(C#N)=C5/C=C(C)c6ccc(N(CC)CC)cc6O5)cc4)ccc31)[Ir-3]13([c]4ccccc4-c4[nH]c5ccccc5[n+]41)([c]1ccccc1-c1[nH]c4ccccc4[n+]13)[n+]1c-2ccc2ccccc21 [3a]	> 67	1.5 ± 0.1	> 100		vastly induced these secondary cell populations							strong fluorescence signal	photoinduced necrotic cell death	slightly increased ROS levels
CCCCn1c2[n+](c3cc(C(=O)NC[C@H]4CC[C@H](C(=O)NCCCNC(=O)C[n+]5ccc(/C(C#N)=C6/C=C(C)c7ccc(N(CC)CC)cc7O6)cc5)CC4)ccc31)[Ir-3]13([c]4ccccc4-c4[nH]c5ccccc5[n+]41)([c]1ccccc1-c1[nH]c4ccccc4[n+]13)[n+]1c-2ccc2ccccc21 [3e]	> 13	7.6 ± 0.9	> 100		vastly induced these secondary cell populations							strong fluorescence signal	photoinduced necrotic cell death	slightly increased ROS levels
CCCCn1c2[n+](c3cc(C(=O)OC)ccc31)[Ir-3]13([c]4ccccc4-c4[nH]c5ccccc5[n+]41)([c]1ccccc1-c1[nH]c4ccccc4[n+]13)[n+]1c-2ccc2ccccc21 [2a]	> 36	2.8 ± 0.3	> 100											
